Our source for the TGI and GI50 values is PubChem BioAssay (NCI).

As a reminder, the TGI is the concentration at which net growth stops. A higher TGI goes with lower sensitivity of the cells. The term GI50 denotes the concentration giving 50% growth inhibition.

The structures appear in SMILES notation. “And” between values parts separate entries of the source, which are not always exact repeats. Identical values can stand only once.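 Following 48 hours of exposure in 96-well plates, responses at five concentrations were used to interpolate endpoints linearly. At the GI50, growth is halved. TGI marks complete inhibition of growth.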

Holding throughout (test): DTP human tumour cell line panel, 48 h
The subject of assay [1] is LOX IMVI melanoma.
Assay [2] concerns NCI-H460 lung.
For assay [3], the system named is SK-MEL-5 melanoma.
For assay [4], the system named is UACC-257 melanoma.
Assay [5] deals with HCT-15 colon.
Assay [6] has as its system RXF 393 renal.
Assay [7] relates to HOP-92 NSCLC.
For assay [8], the system named is M14 melanoma.
For assay [9], the system named is BT-549 breast.
In assay [10] the test system is MDA-MB-435.

With `CCCc1nn(C)c(CCC(=O)N(Cc2ccccc2)Cc2ccccc2)c1CC`, the TGI in [1], in [2], in assay [3], in assay [4], in assay [5] and in assay [6] was greater than 100 µM in each case. In addition, the TGI in assay [7] and in [8] was greater than 100 µM in each case.

For `CC1=C(C(=O)Nc2ccccc2C)C(c2ccccc2O)C(C(=O)Nc2ccccc2C)=C(C)N1`, the TGI in assay [1] is 44.6 µM; in assay [2], 31.1 µM; in assay [3] it was 61.8 µM; in assay [4], 49.4 µM; in [5] it was 29.4 µM; in assay [6], 47.3 µM. Besides, the values for the TGI in assay [7] and in assay [8] were greater than 100 µM and 39.8 µM, respectively.

`CCCCCCCCCCCCCP(=O)(OC)OC`: the total growth inhibition concentration (TGI) in assay [1] amounted to 35.3 µM; in [2], 31.3 µM; in assay [3] it was 32.6 µM; in assay [4] it was 33.7 µM; in assay [5], 31.6 µM; in assay [6], 48.4 µM. The total growth inhibition concentration (TGI) in [7] worked out at 35 µM; in [8] it was 34.7 µM.

Turning to `CCCCCC1CC=CC(NC(=O)OCc2ccccc2)C1/C=C/CCCC1OCCO1` (configuration not stated), the concentration for total growth inhibition (TGI) in assay [1], in assay [2], in [3], in [4], in assay [5] and in [6] was greater than 100 µM each time. Moreover, the TGI in [7] and in assay [8] was greater than 100 µM in each case.

Take `CCOP(=O)(OCC)C(NC(c1ccccc1)c1ccccc1)c1ccsc1` (configuration not stated): the GI50 in [2] is 18.7 µM; in [9], 27.5 µM; in assay [3], 18.4 µM; in assay [10] it was 21.2 µM; in assay [5], 16.1 µM; in assay [7], 14.3 µM. The GI50 in assay [8] is 16.5 µM. The total growth inhibition concentration (TGI) in assay [2] came out at 53.7 µM; in assay [9], 52.3 µM; in assay [3], 35.1 µM; in assay [10], 39.7 µM; in assay [5], 84.6 µM; in assay [7] it was 30.8 µM. The TGI in [8] was 30.5 µM.

In the case of `O=C1NC(c2cccc3ccccc23)Nc2ccccc21` (configuration not stated), the GI50 in assay [1] was 0.0389 µM; in [2], 0.0405 µM; in assay [3], 0.00988 µM; in [8] it was 0.0177 µM. Further, the TGI in [1] was greater than 96.7 µM; in assay [2], 0.73 µM and 4.89 µM; in assay [9], greater than 100 µM; in assay [4] it was 32.6 µM; in assay [10], 0.0068 µM; in [5] it was 2.28 µM and 2.17 µM. This compound had a concentration for total growth inhibition (TGI) in [8] of 0.672 µM.

For the compound `COc1cc(C(=O)c2cnc(-c3ccc4cc[nH]c4c3)[nH]2)cc(OC)c1OC`, the 50% growth inhibitory concentration (GI50) is 0.105 µM in assay [1]; 0.0376 µM in assay [2]; 0.0631 µM in assay [9]; 0.0385 µM in assay [3]; 2.03 µM in assay [4]; 0.0381 µM in assay [5]. Further, the GI50 in assay [7] is 0.632 µM. Further, the total growth inhibition concentration (TGI) in assay [1] was 1.98 µM; in assay [2], 11.5 µM; in [9] it was 3.12 µM; in assay [3], 0.389 µM; in [4], 17.4 µM; in assay [10], 0.0245 µM. The figures for the TGI in assay [5] and in assay [7] were 4.96 µM and 6.16 µM, respectively.

For `CN(C)c1ccc(/C=N/n2c(CCCCc3n[nH]c(=S)n3/N=C/c3ccc(N(C)C)cc3)n[nH]c2=S)cc1`, the GI50 in assay [1], in [2], in [3], in [4], in [10] and in assay [5] was greater than 100 µM each time. Besides, the GI50 in assay [6], in assay [7] and in [8] was greater than 100 µM throughout. Further, the concentration for total growth inhibition (TGI) in assay [1], in assay [2], in [3], in [4], in assay [10] and in assay [5] was greater than 100 µM throughout. Moreover, the TGI in assay [6], in assay [7] and in assay [8] was greater than 100 µM in each case.

Regarding `CCN(CC)CCCNc1nccc2c(C)c3[nH]c4ccncc4c(=O)c3cc12`, the total growth inhibition concentration (TGI) in assay [1] is 3.26 µM; in assay [2], 7.04 µM; in assay [3], 14.1 µM; in assay [4], 31.7 µM; in [5], greater than 100 µM; in [6], 3.18 µM. Moreover, the TGI in assay [7] is 7.64 µM; in assay [8] it was 9.64 µM.

As for `Cn1c2ccccc2c2c(=O)n(CCCC(=O)NCCc3cnc[nH]3)c3c(-c4ccccc4)nnn3c21`, the GI50 in assay [1] is 11.2 µM; in assay [2] it was 10.9 µM; in assay [3], 9.09 µM; in [4] it was 12 µM; in assay [10], 10.2 µM; in assay [5] it was 14.6 µM. Also, the GI50 is 7.41 µM in [6], 1.35 µM in [7] and 11.9 µM in assay [8]. Besides, the total growth inhibition concentration (TGI) was determined as 22.9 µM in assay [1]; 24.3 µM in assay [2]; 17.2 µM in [3]; 21.6 µM in assay [4]; 20 µM in [10]; 44.1 µM in assay [5]. Besides, the concentration for total growth inhibition (TGI) in assay [6] amounted to 18.2 µM; in [7], 5.48 µM; in assay [8], 24.3 µM.

With `c1ccc(N2CCN(CCCN3CCc4c([nH]c5ccccc45)C3c3cccnc3)CC2)cc1` (configuration not stated), the TGI was greater than 100 µM in assay [1]; greater than 100 µM in [2]; greater than 100 µM in [3]; greater than 79.9 µM in [4]; greater than 100 µM in assay [5]; greater than 100 µM in assay [6]. Besides, the concentration for total growth inhibition (TGI) in [7] was greater than 100 µM; in [8], 59.8 µM.

Turning to `CCC1=CCC(P(=O)(c2ccccc2)c2ccccc2)CC1C` (configuration not stated), the TGI in assay [1] was greater than 100 µM; in [2], greater than 100 µM; in assay [3], 70.8 µM; in assay [4] it was greater than 100 µM; in assay [5] it was greater than 100 µM; in assay [6] it was greater than 100 µM. In addition, the values for the TGI in assay [7] and in assay [8] were 71.6 µM and greater than 100 µM, respectively.
